These results are taken from patent publication US20150031655A1, “COMBINATION OF LIVER X RECEPTOR MODULATOR AND ESTROGEN RECEPTOR MODULATOR FOR THE TREATMENT OF AGE-RELATED DISEASES” (UNIVERSITY OF NORTH DAKOTA, priority 2011, published 2015).

In assay [1] the test system is LXRα/β. Briefly: EMSA, binding of LXRα/β to probe for the LXRE in the α-synuclein promoter. It counts as cell-based, human. The note with it: for binding of LXRα/β to the exogenous DNA sequence containing the LXRE: nuclear extracts of treated SH-SY5Y, treatment alone vs control. On the technique in general: In EMSA bound probe runs differently from free probe, usually more slowly.

For assay [2], the system named is TH mRNA. Briefly: Real time RT-PCR of TH mRNA in SH-SY5Y cells. The note with it: 24 h, treatment alone vs control. It counts as cell-based, human. Here is the method: (§1) Human neuroblastoma SH-SY5Y cells were grown in DMEM/F12 medium containing 10% fetal bovine serum (FBS) and 1% antibiotic/antimycotic mix. Cells were maintained at 37° C. in a saturated humidity atmosphere containing 95% air and 5% CO2.
(§2) Total RNA was isolated and extracted from treated cells using the 5 prime “PerfectPure RNA tissue kit” (5 Prime, Inc., Gaithersburg, Md.). RNA estimation was performed using “Quant-iT RNA Assay Kit” using a Qubit fluorometer according to the manufacturer's protocol (Invitrogen, Carlsbad, Calif.). cDNA was synthesized by reverse transcribing 1 μg of extracted RNA using an “iScript cDNA synthesis kit” (BioRad, Hercules, Calif.). The oligomeric primers (Sigma, St Louis, Mo.) used to amplify the TH mRNA and α-synuclein mRNA are enumerated in Table 1. The cDNA amplification was performed using an iQ SYBR Green Supermix kit following the manufacturer's instructions (BioRad, Hercules, Calif.). The amplification was performed using an iCycler iQ Multicolor Real Time PCR Detection System (BioRad, Hercules, Calif.). The expression of specific TH and α-synuclein transcripts amplified were normalized to the expression of glyceraldehyde-3-phosphate dehydrogenase (GAPDH).
In general terms: Quantitative PCR measures a nucleic acid by following its amplification.

Assay [3] concerns ERE-mediated transcription. Briefly: Dual-luciferase ERE reporter assay (ER-mediated transcription). It is filed as cell-based, human. The settings on record: SH-SY5Y transfected with ERE-luciferase, 24 h. The procedure:
Constructs encoding ERE and TH promoter conjugated to the firefly luciferase gene were used in the study. Human neuroblastoma SH-SY5Y cells were plated in 96-well plates at a density of 2×10^4 cells/well.
The cells were transfected when 80% confluent with 0.25 μg of either ERE-firefly Luciferase reporter construct, LXRE-firefly Luciferase reporter construct, or TH promotor-firefly Luciferase promoter construct. Respective non-inducible reporter constructs containing constitutively expressing Renilla luciferase were used as negative internal controls. Constitutively expressing GFP constructs were used as positive control to determine transfection efficiency.
Cells were incubated for 24 hours with Opti-MEM serum free medium (Invitrogen, Carlsbad, Calif.) containing the reporter constructs dissolved in transfection reagent. After 24 hours the medium was changed and the cells were incubated in normal DMEM/F12 medium containing 10% FBS and cells were treated with the different treatment regimens.
The cells were treated in triplicate and harvested 24 hours later and subjected to dual-luciferases assay. The dual-luciferase assay was performed using a “Dual-Luciferase Reporter Assay System” from Promega (Madison, Wis.). The luminescence recorded is expressed as Relative Luminescence Units (RLU) and normalized to per mg protein. […]

Assay [4] addresses T1, LXRα (Homo sapiens, UniProt Q13133).
T1 construct: endogenous in cells; host or cells: SH-SY5Y human neuroblastoma cells
T1 sequence (Q13133 1-447): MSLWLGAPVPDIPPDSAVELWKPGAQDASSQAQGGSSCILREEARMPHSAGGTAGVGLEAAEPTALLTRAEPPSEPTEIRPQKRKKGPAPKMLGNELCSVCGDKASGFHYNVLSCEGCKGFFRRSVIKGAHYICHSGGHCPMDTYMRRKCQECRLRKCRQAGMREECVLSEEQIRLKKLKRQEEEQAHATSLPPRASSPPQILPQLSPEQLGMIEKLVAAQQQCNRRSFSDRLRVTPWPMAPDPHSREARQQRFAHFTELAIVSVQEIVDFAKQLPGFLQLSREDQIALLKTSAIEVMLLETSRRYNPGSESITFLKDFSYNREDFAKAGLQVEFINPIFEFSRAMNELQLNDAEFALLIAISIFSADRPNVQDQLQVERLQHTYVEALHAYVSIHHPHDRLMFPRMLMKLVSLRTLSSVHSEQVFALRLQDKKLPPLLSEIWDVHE
Briefly: Western blot of LXRα levels in the nucleus, SH-SY5Y cells. The settings on record: for LXRα protein levels in the nucleus: 24 h, treatment alone vs control; for 27-OHC-induced increase in LXRα in the nucleus: co-treatment with 10 μM 27-OHC. It is filed as cell-based. Here is the method: as §1
(§3) Treated SH-SY5Y cells were washed with PBS and trypsinized to collect the cells and centrifuged at 5000 g. The pellet was washed again with PBS and homogenized in NE-PER tissue protein extraction reagent (Thermo Scientific, Rockford, Ill.) supplemented with protease and phosphatase inhibitors. Protein concentrations from the cytosolic and nuclear homogenates were determined with BCA protein assay.
(§4) Proteins (10 μg) were separated on SDS-PAGE gels, transferred to a polyvinylidene difluoride membrane (BioRad, Hercules, Calif.), and incubated with the following monoclonal antibodies: anti-TH mouse antibody (1:1000; Sigma Aldrich, Saint Louis, Mo.), anti-α-synuclein mouse antibody (1:500; Chemicon, Temecula, Calif.), anti-ERα rabbit antibody (1:500; Abcam, Cambridge, Mass.), anti-ERβ rabbit antibody (1:200; Upstate, Lake Placid, N.Y.), anti-LXRα rabbit antibody (1:500; Abcam, Cambridge, Mass.), anti-LXRβ mouse antibody (1:500; Abcam, Cambridge, Mass.).
(§5) β-actin and Lamin A were used as a gel loading control for cytosolic homogenates and nuclear homogenates respectively. The blots were developed with enhanced chemiluminescence (Immmun-star HRP chemiluminescent kit, Bio-Rad, Hercules, Calif.). Bands were visualized on a polyvinylidene difluoride membrane and analyzed by LabWorks 4.5 software on a UVP Bioimaging System (Upland, Calif.). Quantification of results was performed by densitometry and the results analyzed as total integrated densitometric values (arbitrary units).

Assay [5] relates to ARPE-19 cells. Briefly: ROS levels in ARPE-19 cells. It counts as cell-based. The settings on record: ARPE-19, 24 h.
In assay [6] the test system is α-synuclein mRNA. Briefly: Real time RT-PCR of α-synuclein mRNA in SH-SY5Y cells. It is filed as cell-based, human. The note with it: for increase in α-synuclein mRNA expression: 24 h; for 27-OHC-induced increase in α-synuclein mRNA: co-treatment with 10 μM 27-OHC. Here is the method:
as §1, §2

In assay [7] the test system is TH. Briefly: Western blot of TH protein levels in SH-SY5Y neuroblastoma cells. It is filed as cell-based, human. The note with it: for TH protein levels / TH expression: 24 h, treatment alone vs control (10 μM 27-OHC, 1 nM estradiol, 10 μM GW3965, 10 μM ECHS). Here is the method: as §1, §3, §4, §5
For orientation: Immunoblotting shows a protein as a band on a membrane.

With `C[C@@H](CO)CCC[C@@H](C)[C@H]1CC[C@H]2[C@@H]3CC=C4C[C@@H](O)CC[C@]4(C)[C@H]3CC[C@]12C` [27-OHC, 27-hydroxycholesterol], the “binding of LXRα/β to the exogenous DNA sequence containing the LXRE” value in assay [1] is “increases”. Also, the “TH mRNA” value in assay [2] was “reduces”. Also, in assay [3], the “decrease of ER-mediated transcription” value was roughly 5 fold. The “LXRα protein levels in the nucleus” value in assay [4] is recorded as “increases”. Also, the “reactive oxygen species (ROS) levels” value in assay [5] (10 μM, alone vs control) was “increases”. The “increase in α-synuclein mRNA expression” value in assay [6] (treatment alone vs control) came out at 9 fold. In addition, the “TH protein levels / TH expression” value in assay [7] is on record as “significant decrease”.
For `CC(C)CCC[C@@H](C)[C@H]1CC[C@H]2[C@@H]3C[C@@H]4O[C@@]45C[C@@H](OS(=O)(=O)O)CC[C@]5(C)[C@H]3CC[C@]12C` [ECHS, 5α,6α-epoxycholesterol-3-sulfate], in assay [1] (co-treatment with 27-OHC), the “27-OHC-induced increase in LXRα/β binding to the LXRE consensus motif” value is “mitigates”. In assay [1], the “binding of LXRα/β to the exogenous DNA sequence containing the LXRE” value was “decreased”. Moreover, in assay [4], the “LXRα protein levels in the nucleus” value is on record as “reduced” and the “27-OHC-induced increase in LXRα in the nucleus” value is reported as “significantly attenuated”. Besides, the “27-OHC-induced increase in ROS levels” value in assay [5] (co-treatment with 27-OHC, all at 10 μM) is listed as “reduced”. Also, the “27-OHC-induced increase in α-synuclein mRNA” value in assay [6] is given as “marked attenuation”. The “α-synuclein mRNA levels” value in assay [6] (treatment alone vs control) is recorded as “no effect”. Further, the “TH protein levels / TH expression” value in assay [7] is reported as “no effect”. Also, in assay [7] (ECHS added to 27-OHC+estradiol), the “effect of estradiol on 27-OHC-induced decrease in TH expression” value was “does not alter”. In addition, the TH expression entry in assay [7] (in combination with estradiol) was “no effect”.
Regarding `Cl.O=C(O)Cc1cccc(OCCCN(Cc2cccc(C(F)(F)F)c2Cl)CC(c2ccccc2)c2ccccc2)c1` [GW3965, 3-[3-[N-(2-Chloro-3-trifluoromethylbenzyl)-(2,2-diphenylethyl)amino]propyloxy]phenylacetic acid hydrochloride], in assay [4], the “LXRα protein levels in the nucleus” value is on record as “more pronounced increase” and the “27-OHC-induced increase in LXRα in the nucleus” value is reported as “to the same extent”. Moreover, the “increase in α-synuclein mRNA expression” value in assay [6] (treatment alone vs control) came to 10 fold. For the same compound, in assay [6], the “27-OHC-induced increase in α-synuclein mRNA” value is recorded as “not mRNA levels”. The “TH protein levels / TH expression” value in assay [7] is recorded as “no effect”.
